In patent US20030003583A1, “Regulation of transgene expression following AAV transduction” (priority 2001, published 2003):
Residues, ends and D or L forms follow the SMILES beside them. *: point of attachment. Cbz = O=C(OCc1ccccc1)*

Columns and labels:
[1] = test system: proteasome; conditions: cited from earlier work
[2] = test system: human type B synoviocytes infected with rAAV(mIL-10); experiment: Mouse IL-10 transgene expression (ELISA of supernatants) in human type B synoviocytes infected with rAAV(mIL-10); assay type: cell-based
Method: Synoviocytes were infected with rAAV on day 0. On day 1, cells were exposed to the indicated amounts of zLLL for 24 hours. Supernatants were harvested on days 3 and 7 and assayed by ELISA for mouse IL-10.
Synoviocytes were infected with rAAV on day 0. At various times (indicted by the arrows), some cells were exposed to 40 μM of zLLL for 24 hours (A) or to recombinant adenovirus lacking a transgene (B). Supernatants were harvested and assayed by ELISA for mouse IL-10.
Kwon, C. Mah, and A. Srivastava. 2000. Impaired intracellular trafficking of adeno-associated virus type 2 vectors limits efficient transduction of murine fibroblasts. J Virol 74:992-996) to determine whether human synoviocytes could be made to express a transgene following AAV-mediated gene transfer. […] This is inconsistent with the proposed mechanism of action of zLLL, that of increasing viral trafficking to the nucleus, as transgene expression should be stable once the viral genome reaches the nucleus and sufficient second strand synthesis occurs.
(§1) To further explore this finding, synovial cells were re-exposed to zLLL following the loss of transgene expression. […] In each case, expression peaked 2-3 days following exposure to zLLL and then dropped off. We were able to re-induce transgene expression as far out as 25 days after infection. We have not yet looked at further time points, but we can already conclude that the transgene persists in the synoviocytes for an extended period of time and that its expression can be regulated by zLLL.
This is inconsistent with the proposed mechanism of action of zLLL, that of increasing viral trafficking to the nucleus, as transgene expression should be stable once the viral genome reaches the nucleus and sufficient second strand synthesis occurs.
as §1, with “reinduce” for “re-induce”

[3] = test system: human type B synoviocyte cultures infected with rAAV(mIL-4); experiment: Real-time PCR of transgene mRNA in human type B synoviocytes infected with rAAV(mIL-4); assay type: cell-based; conditions: 40 μM zLLL for 24 hours
Method: Human type B synoviocyte cultures were infected with rAAV(mIL-4). Ten days later, some cells were exposed to 40 μM of zLLL for 24 hours. Cells were harvested and RNA was extracted, reverse transcribed, and subjected to real-time PCR using a LightCycler™ System (Roche Molecular Biochemicals, Indianapolis, Ind.) with the FastStart DNA Master SYBR Green I reaction mix and gene specific primers. LIGHTCYCLER Quantification Software v5.32 was used to compare amplification in the samples during the log-linear phase. Data are normalized to the AAV(mIL-4) samples, which are given a value of 1. The ZLLL group was not infected with AAV (IL-4).
Synoviocytes transduced with AAV(mIL-4) were exposed to zLLL and RNA was extracted and subjected to real-time PCR. zLLL induced a 250-fold increase in mIL-4 mRNA with no increase in the constituitively-expressed gene, GAPDH (FIG. 4).

[4] = test system: RA synovium implanted into SCID mice; experiment: Luciferase expression in RA synovium implanted into SCID mice, injected with AAV(Luc), after in vivo zLLL; conditions: zLLL into the synovial tissue or intraperitoneally two weeks after AAV(Luc); tissue removed 48 hours later
Method: RA synovium was implanted into SCID mice. Two weeks later, synovial tissues were injected with 6.8×10^10 particles of AAV(Luc). Two weeks following rAAV administration, zLLL was administered in a 100 μl volume either directly into the synovial tissue or intraperitoneally. Synovial tissues were removed 48 hours later, homogenized, and assayed for luciferase content.
The optimal in vivo dose and route of administration is unclear from this preliminary study and will be addressed in the proposed experiments.

[5] = test system: other cell types; conditions: cited from earlier work
[6] = test system: mouse lungs; conditions: in vivo; cited from earlier work

## CC(=O)N[C@@H](CSC(=O)[C@]1([C@@H](O)C(C)C)NC(=O)[C@H](C)[C@@H]1O)C(=O)O [Lactacystin]
[1]
  specificity for the proteasome / other proteases inhibited: high specificity for the proteasome

## CC(C)C[C@@H](C=O)NC(=O)[C@H](CC(C)C)NC(=O)[C@H](CC(C)C)NC(=O)OCc1ccccc1 [zLLL, Carbobenzoxyl-L-leucyl-L-leucyl-L-leucinal] (Cbz-Leu-Leu-Leu-aldehyde)
[2]; 40 μM zLLL for 24 hours at various times
  transgene expression on re-exposure after loss of expression: could be repeatedly induced
[2]; 3 days following infection with rAAV, zLLL for 24 hours on day 1, dose dependent
  expression of a mouse IL-10 transgene: dramatically enhanced
[2]; day 7 after infection, single 24 h zLLL exposure on day 1
  expression of mouse IL-10 transgene by day 7: expression was lost
[2]; days after infection
  latest time after infection at which transgene expression was re-induced: 25 days
[2]; following each exposure to zLLL
  time of peak expression following exposure: 2 to 3 days
[3]
  change in constitutively expressed gene GAPDH mRNA: no increase
[3]; ten days after infection, normalized to AAV(mIL-4) samples
  increase in mIL-4 mRNA: 250 fold
[4]
  in vivo transgene (luciferase) expression: dramatically enhanced
[5]
  nuclear accumulation of rAAV particles and the rAAV genome: increase nuclear accumulation
[6]
  rAAV-mediated transduction in mouse lungs: enhance rAAV-mediated transduction
[1]
  specificity for the proteasome / other proteases inhibited: can also inhibit certain lysosomal cysteine proteases and the calpains
